Consider ten molecules from PubChem BioAssay (NCI).

SMILES strings stand for the structures.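 Dose response: 5 concentrations. Exposure: 48 h. Format: 96-well plates. Endpoint: linear interpolation; highest concentration if not reached. At the TGI there is no net growth.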 Where a SMILES comes first, the peptide text is derived from it. Bridges are numbered along the chain shown (N, C = ends). [ ]: non-standard residue; d: D form. Aib = CC(C)(N)C(=O)O; βAla = NCCC(=O)O

Some test systems named below: NCI-H23 lung; UO-31 renal; MOLT-4 leukemia; SK-MEL-28 melanoma; COLO 205 colon; OVCAR-4 ovarian; HS 578T breast; HOP-62 NSCLC; SW-620 colon; A549 NSCLC; U251 CNS.
Holding throughout (experiment): inhibition of tumour cell growth, NCI panel, 48 h

In the case of `OC1(C(Sc2cc(C(F)(F)F)cc(C(F)(F)F)c2)Sc2cc(C(F)(F)F)cc(C(F)(F)F)c2)C=CCCC1` (configuration not stated), the TGI came out at 8.66 µM with NCI-H23 lung; 3.66 µM in the experiment on UO-31 renal; 5.08 µM with MOLT-4 leukemia; 9.12 µM in the experiment with SK-MEL-28 melanoma; 5.59 µM in the experiment on COLO 205 colon; 7.06 µM in the experiment with OVCAR-4 ovarian. Also, the TGI amounted to 13.3 µM with HS 578T breast, 11.4 µM in the experiment with HOP-62 NSCLC, 7.74 µM in the experiment on SW-620 colon and 6.1 µM in the experiment on A549 NSCLC.

For `CC1(C)NC(=O)C(NC(=O)C(N)CC(=O)O)CCCCNC(=O)CCNC1=O` (configuration not stated) (H-DK[Aib][βAla]; lactam 2-C; configuration not given here), the TGI with NCI-H23 lung, in the experiment on UO-31 renal, in the experiment with MOLT-4 leukemia, in the experiment with SK-MEL-28 melanoma, in the experiment on COLO 205 colon and in the experiment on OVCAR-4 ovarian was greater than 100 µM throughout. Moreover, the TGI in the experiment with HS 578T breast, in the experiment on HOP-62 NSCLC, in the experiment with SW-620 colon, with U251 CNS and in the experiment with A549 NSCLC was greater than 100 µM in each case.

On to `COC(=O)[C@]12CC3C=CC1N(C3)C(CBr)c1c2n(S(=O)(=O)c2ccccc2)c2ccccc12` (some centres not stated), for which the TGI with NCI-H23 lung, with UO-31 renal, with SK-MEL-28 melanoma, in the experiment with COLO 205 colon, with OVCAR-4 ovarian and in the experiment on HS 578T breast was greater than 100 µM throughout. The TGI in the experiment with HOP-62 NSCLC, in the experiment on SW-620 colon, with U251 CNS and with A549 NSCLC was greater than 100 µM throughout.

As to `N#CC(c1ccccc1)N(CCCCCCN(C(=O)c1ccccc1)C(C#N)c1ccccc1)C(=O)c1ccccc1` (configuration not stated), the TGI was 73.8 µM in the experiment with NCI-H23 lung; 46.1 µM with UO-31 renal; greater than 100 µM in the experiment with MOLT-4 leukemia; greater than 100 µM in the experiment with SK-MEL-28 melanoma; 39.8 µM with COLO 205 colon; 91.2 µM in the experiment with OVCAR-4 ovarian. For the same molecule, the TGI in the experiment on HS 578T breast was 83.6 µM; with SW-620 colon, greater than 100 µM; in the experiment on U251 CNS it was greater than 100 µM; with A549 NSCLC, greater than 100 µM.

On to `COc1ccc(C(=O)C#Cc2cn(C3CC(O)C(CO)O3)c(=O)[nH]c2=O)cc1` (configuration not stated), for which the TGI is greater than 100 µM in the experiment with NCI-H23 lung; greater than 100 µM in the experiment with UO-31 renal; greater than 100 µM with MOLT-4 leukemia; 50.5 µM in the experiment with SK-MEL-28 melanoma; greater than 100 µM with COLO 205 colon; greater than 100 µM with OVCAR-4 ovarian. In addition, the TGI with HS 578T breast, with HOP-62 NSCLC, in the experiment with SW-620 colon, with U251 CNS and with A549 NSCLC was greater than 100 µM in each case.

For the molecule `CC(/C=C/C(=O)NO)=C\C(C)C(=O)c1ccc(N(C)C)cc1` (configuration not stated), the TGI in the experiment with NCI-H23 lung is 4 µM; in the experiment on UO-31 renal, 0.262 µM; with SK-MEL-28 melanoma it was 14.8 µM; with COLO 205 colon, 0.0854 µM; in the experiment with OVCAR-4 ovarian it was 16.8 µM; with HS 578T breast, 0.133 µM. In addition, the TGI with HOP-62 NSCLC was found to be 14.6 µM; with SW-620 colon, 29.8 µM; with U251 CNS it was 0.0354 µM; in the experiment on A549 NSCLC, 0.0814 µM.

As for `CC(=O)OC[C@H]1CN(OC(C)=O)C[C@@H](n2cc(C)c(=O)[nH]c2=O)O1`, the TGI with UO-31 renal, with MOLT-4 leukemia, in the experiment on SK-MEL-28 melanoma, in the experiment with COLO 205 colon, in the experiment on OVCAR-4 ovarian and in the experiment on HS 578T breast was greater than 100 µM throughout. The TGI in the experiment on HOP-62 NSCLC, in the experiment on SW-620 colon, with U251 CNS and in the experiment on A549 NSCLC was greater than 100 µM each time.

For the molecule `O=C1C2C(C(=O)N1c1ccccc1)C1(c3ccccc3)CCC2(C(=O)c2ccccc2)O1` (configuration not stated), the TGI in the experiment with NCI-H23 lung, in the experiment with UO-31 renal, in the experiment with MOLT-4 leukemia, in the experiment with SK-MEL-28 melanoma, with COLO 205 colon and in the experiment with OVCAR-4 ovarian was greater than 10 µM each time. The TGI in the experiment on HS 578T breast, with HOP-62 NSCLC, in the experiment with SW-620 colon, with U251 CNS and in the experiment on A549 NSCLC was greater than 10 µM in each case.

For the molecule `CN(C)C(C1=C(O)C(c2ccccc2)N(c2ccccc2)C1=O)N1CCOCC1` (configuration not stated), the TGI with NCI-H23 lung, in the experiment on UO-31 renal, with MOLT-4 leukemia, in the experiment with SK-MEL-28 melanoma, in the experiment with COLO 205 colon and in the experiment on OVCAR-4 ovarian was greater than 10 µM throughout. The TGI in the experiment with HS 578T breast, in the experiment with HOP-62 NSCLC, in the experiment on SW-620 colon, in the experiment with U251 CNS and in the experiment with A549 NSCLC was greater than 10 µM throughout.

For the molecule `CC1CC(N)=C(C#N)C1(C#N)C#N` (configuration not stated), the TGI in the experiment with NCI-H23 lung, in the experiment with UO-31 renal, in the experiment on MOLT-4 leukemia, in the experiment on COLO 205 colon, with HS 578T breast and in the experiment with SW-620 colon was greater than 100 µM in each case. Moreover, the TGI in the experiment on U251 CNS and in the experiment with A549 NSCLC was greater than 100 µM in each case.
